Patent publication US20240300973A1, “MODULATORS OF FPR1 AND METHODS OF USING THE SAME” (BIOFRONT THERAPEUTICS (BEIJING) CO., LTD., priority 2021, published 2024)

Biological target: T1, FPR1 (UniProt P21462)
T1 sequence (P21462 1-350): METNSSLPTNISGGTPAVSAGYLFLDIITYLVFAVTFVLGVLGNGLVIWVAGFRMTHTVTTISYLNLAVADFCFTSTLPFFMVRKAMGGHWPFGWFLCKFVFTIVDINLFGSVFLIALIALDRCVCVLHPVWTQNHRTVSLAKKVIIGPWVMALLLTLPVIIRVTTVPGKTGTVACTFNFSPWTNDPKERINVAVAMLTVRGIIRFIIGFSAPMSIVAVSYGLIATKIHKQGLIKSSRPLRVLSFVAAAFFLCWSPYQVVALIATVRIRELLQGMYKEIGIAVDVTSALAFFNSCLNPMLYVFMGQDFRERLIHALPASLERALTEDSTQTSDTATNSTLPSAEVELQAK
Test: fMLP-FPR1 mediated intracellular calcium signaling assay in FPR1-overexpressing 293T cells
Type: cell-based, human or mouse
Conditions: inhibition of fMLP-stimulated intracellular calcium change; hFPR1 or mFPR1 overexpressing 293T cells; 10 min pre-incubation; INDO-1 AM, FACS; read-out: IC50 (nM), potency in calcium signaling assay
Method: The effects of the compounds of this disclosure on regulating the FPR1-mediated cell signaling were measured by monitoring the cellular calcium level change, as illustrated by the exemplary examples in Table 2. The dose responses of the illustrated examples are reported categorically using the following ranking criteria: *** (IC50≤100 nM); ** (IC50≥100 to ≤1000 nM); * (IC50≥1000 to ≤10,000 nM); N.D.—not detected.
The coding DNA sequence (CDS) of human FPR1 (NM_001193306) and mouse FPR1 (NM_013521) were cloned and inserted to the lentivirus vector GV367 (Vector information: • http://www.genechem.com.cn/index/supports/tool_search.html?keywords=GV367) under the conduction of pCMV promoter. 293T cells were cultured in H-DMEM supplemented with 10% FBS and 1% penicillin—streptomycin (PS) at 37° C. in 5% CO2 Incubator. […] The overexpression of human or mouse FPR1 in 293 T cells were detected by immunostaining with anti-mouse or human FPR1 antibodies (Biolegend or Antibody Online). […]
Cultured hFPR1 or mFPR1 overexpressing 293T cells were labeled with 1 μM INDO-1 AM calcium sensor dye (eBioscience) for 30 min at 37° C. […] The cytoplasmic calcium levels were then measured by FACS Aria III at 37° C. prior to and after the stimulation of fMLP. […] The change of intracellular calcium was calculated as follow: (basal value-minimum value)/basal value×100%. […]

IC50 [nM] | SMILES
100 to 1000 | Cc1ccc(O)c(-c2noc3c2C(c2ccc(C(F)(F)F)cc2)N(C2CCOCC2)C3=O)c1 (racemic) [Compound 2, rac-3-(2-hydroxy-5-methylphenyl)-5-(tetrahydro-2H-pyran-4-yl)-4-(4-(trifluoromethyl)phenyl)-4,5-dihydro-6H-pyrrolo[3,4-d]isoxazol-6-one]
1000 to 10000 | Cc1ccc(O)c(-c2onc3c2C(c2ccc(C(F)(F)F)cc2)N(C2CCOCC2)C3=O)c1 (racemic) [Compound 1, rac-3-(2-hydroxy-5-methylphenyl)-5-(tetrahydro-2H-pyran-4-yl)-4-(4-(trifluoromethyl)phenyl)-4,5-dihydro-6H-pyrrolo[3,4-c]isoxazol-6-one]
